From PubChem BioAssay AID1259407 (Chemical Carcinogenesis Research Information System (CCRIS), 2018)
“Also recorded” adds a separate entry of the source. The source made the active and inactive calls. No rule for the calls is given here.

System: CCRIS mutagenicity, Ames/micronucleus/aberration tests
Assay: CCRIS mutagenicity studies

CC(=O)Nc1ccc2c(c1)Cc1ccccc1-2
mutagenic call (End Point: IN VITRO MICRONUCLEUS, Test System: AHH-1 CELLS, Metabolic Activation: NONE): active; positive | mutagenic call (End Point: IN VITRO MICRONUCLEUS, Test System: MCL-5 CELLS, Metabolic Activation: NONE): active; positive | mutagenic call (End Point: IN VITRO MICRONUCLEUS, Test System: V79 CELLS, Metabolic Activation: RAT, LIVER, S-9, AROCLOR 1254): active; positive | mutagenic call (End Point: In vivo micronucleus, Test System: Micronucleated hepatocytes, Species: Rat, Strain/Sex: F344/Male, Route: Oral): active; positive (p<0.01 at highest dose); also recorded: active; positive (p<0.05 at lower dose and p<0.01 at higher dose) | mutagenic call (Test System: AMES SALMONELLA TYPHIMURIUM, Strain/Indicator: DJ400, Metabolic Activation: HUMAN, HEPATOMA CELLS, BENZO[A]ANTHRACENE, Method: PREINCUBATION): active; positive | mutagenic call (Test System: AMES SALMONELLA TYPHIMURIUM, Strain/Indicator: DJ400, Metabolic Activation: HUMAN, HEPATOMA CELLS, Method: PREINCUBATION): active; positive | mutagenic call (Test System: AMES SALMONELLA TYPHIMURIUM, Strain/Indicator: DJ400, Metabolic Activation: RAT, LIVER, S-9, AROCLOR 1254, Method: PREINCUBATION): active; positive | mutagenic call (Test System: AMES SALMONELLA TYPHIMURIUM, Strain/Indicator: DJ400, Metabolic Activation: RAT, LIVER, S-9, Method: PREINCUBATION): active; positive | mutagenic call (Test System: AMES SALMONELLA TYPHIMURIUM, Strain/Indicator: DJ460, Metabolic Activation: HUMAN, HEPATOMA CELLS, BENZO[A]ANTHRACENE, Method: PREINCUBATION): active; positive | mutagenic call (Test System: AMES SALMONELLA TYPHIMURIUM, Strain/Indicator: DJ460, Metabolic Activation: HUMAN, HEPATOMA CELLS, Method: PREINCUBATION): active; positive | mutagenic call (Test System: AMES SALMONELLA TYPHIMURIUM, Strain/Indicator: DJ460, Metabolic Activation: RAT, LIVER, S-9, AROCLOR 1254, Method: PREINCUBATION): active; positive | mutagenic call (Test System: AMES SALMONELLA TYPHIMURIUM, Strain/Indicator: DJ460, Metabolic Activation: RAT, LIVER, S-9, Method: PREINCUBATION): active; positive | mutagenic call (Test System: AMES SALMONELLA TYPHIMURIUM, Strain/Indicator: TA97, Metabolic Activation: NONE, Method: STANDARD PLATE): inactive; negative | mutagenic call (Test System: AMES SALMONELLA TYPHIMURIUM, Strain/Indicator: TA97, Metabolic Activation: RAT, LIVER, S-9, AROCLOR 1254, Method: STANDARD PLATE): inactive; negative | mutagenic call (Test System: AMES SALMONELLA TYPHIMURIUM, Strain/Indicator: TA98, Metabolic Activation: GUINEA PIG, LIVER, HEPATOCYTES): active; positive | mutagenic call (Test System: AMES SALMONELLA TYPHIMURIUM, Strain/Indicator: TA98, Metabolic Activation: GUINEA PIG, LIVER, S-9, Method: STANDARD PLATE): active; positive | mutagenic call (Test System: AMES SALMONELLA TYPHIMURIUM, Strain/Indicator: TA98, Metabolic Activation: HAMSTER, LIVER, HEPATOCYTES): active; positive | mutagenic call (Test System: AMES SALMONELLA TYPHIMURIUM, Strain/Indicator: TA98, Metabolic Activation: HAMSTER, LIVER, S-9, Method: STANDARD PLATE): active; positive | mutagenic call (Test System: AMES SALMONELLA TYPHIMURIUM, Strain/Indicator: TA98, Metabolic Activation: HUMAN, FETAL LIVER, S-9): inactive; negative | mutagenic call (Test System: AMES SALMONELLA TYPHIMURIUM, Strain/Indicator: TA98, Metabolic Activation: HUMAN, HEPATOMA CELLS, BENZO[A]ANTHRACENE, Method: PREINCUBATION): active; positive | mutagenic call (Test System: AMES SALMONELLA TYPHIMURIUM, Strain/Indicator: TA98, Metabolic Activation: HUMAN, HEPATOMA CELLS, Method: PREINCUBATION): active; positive | mutagenic call (Test System: AMES SALMONELLA TYPHIMURIUM, Strain/Indicator: TA98, Metabolic Activation: HUMAN, RED BLOOD CELL, CYTOSOL, Method: PREINCUBATION): active; positive | mutagenic call (Test System: AMES SALMONELLA TYPHIMURIUM, Strain/Indicator: TA98, Metabolic Activation: MOUSE, LIVER, HEPATOCYTES): inactive; negative | mutagenic call (Test System: AMES SALMONELLA TYPHIMURIUM, Strain/Indicator: TA98, Metabolic Activation: MOUSE, LIVER, S-9, Method: STANDARD PLATE): active; positive | mutagenic call (Test System: AMES SALMONELLA TYPHIMURIUM, Strain/Indicator: TA98, Metabolic Activation: NONE, Method: SPIRAL ASSAY): inactive; negative | mutagenic call (Test System: AMES SALMONELLA TYPHIMURIUM, Strain/Indicator: TA98, Metabolic Activation: NONE, Method: STANDARD PLATE): inactive; negative | mutagenic call (Test System: AMES SALMONELLA TYPHIMURIUM, Strain/Indicator: TA98, Metabolic Activation: RABBIT, LIVER, MICROSOMAL FRACTION, Method: STANDARD PLATE): active; positive | mutagenic call (Test System: AMES SALMONELLA TYPHIMURIUM, Strain/Indicator: TA98, Metabolic Activation: RABBIT, LUNG, MICROSOMAL FRACTION, Method: STANDARD PLATE): active; positive | mutagenic call (Test System: AMES SALMONELLA TYPHIMURIUM, Strain/Indicator: TA98, Metabolic Activation: RAT, BLADDER, S-9, PCB, Method: FLUCTUATION TEST): inactive; negative | mutagenic call (Test System: AMES SALMONELLA TYPHIMURIUM, Strain/Indicator: TA98, Metabolic Activation: RAT, LIVER, HEPATOCYTES): inactive; negative | mutagenic call (Test System: AMES SALMONELLA TYPHIMURIUM, Strain/Indicator: TA98, Metabolic Activation: RAT, LIVER, S-9, ACRYLAMIDE, Method: STANDARD PLATE): active; positive | mutagenic call (Test System: AMES SALMONELLA TYPHIMURIUM, Strain/Indicator: TA98, Metabolic Activation: RAT, LIVER, S-9, AROCLOR 1254, Method: PREINCUBATION): active; positive | mutagenic call (Test System: AMES SALMONELLA TYPHIMURIUM, Strain/Indicator: TA98, Metabolic Activation: RAT, LIVER, S-9, AROCLOR 1254, Method: SPIRAL ASSAY): active; positive | mutagenic call (Test System: AMES SALMONELLA TYPHIMURIUM, Strain/Indicator: TA98, Metabolic Activation: RAT, LIVER, S-9, PHENOBARBITAL, Method: STANDARD PLATE): active; positive | mutagenic call (Test System: AMES SALMONELLA TYPHIMURIUM, Strain/Indicator: TA98, Metabolic Activation: RAT, LIVER, S-9, Method: PREINCUBATION): active; positive | mutagenic call (Test System: AMES SALMONELLA TYPHIMURIUM, Strain/Indicator: TA98, Metabolic Activation: RAT, LIVER, S-9, Method: STANDARD PLATE): active; positive | mutagenic call (Test System: AMES SALMONELLA TYPHIMURIUM, Strain/Indicator: TA100, Metabolic Activation: NONE, Method: SPIRAL ASSAY): inactive; negative | mutagenic call (Test System: AMES SALMONELLA TYPHIMURIUM, Strain/Indicator: TA100, Metabolic Activation: NONE, Method: STANDARD PLATE): inactive; negative | mutagenic call (Test System: AMES SALMONELLA TYPHIMURIUM, Strain/Indicator: TA100, Metabolic Activation: RAT, BLADDER, S-9, PCB, Method: FLUCTUATION TEST): inactive; negative | mutagenic call (Test System: AMES SALMONELLA TYPHIMURIUM, Strain/Indicator: TA100, Metabolic Activation: RAT, LIVER, S-9, ACRYLAMIDE, Method: STANDARD PLATE): active; positive | mutagenic call (Test System: AMES SALMONELLA TYPHIMURIUM, Strain/Indicator: TA100, Metabolic Activation: RAT, LIVER, S-9, AROCLOR 1254, Method: SPIRAL ASSAY): inactive; negative | mutagenic call (Test System: AMES SALMONELLA TYPHIMURIUM, Strain/Indicator: TA100, Metabolic Activation: RAT, LIVER, S-9, KC500 OR PHENOBARBITAL, Method: LIQUID SUSPENSION): active; positive | mutagenic call (Test System: AMES SALMONELLA TYPHIMURIUM, Strain/Indicator: TA100, Metabolic Activation: RAT, LIVER, S-9, PHENOBARBITAL, Method: STANDARD PLATE): active; positive | mutagenic call (Test System: AMES SALMONELLA TYPHIMURIUM, Strain/Indicator: TA1535, Metabolic Activation: NONE, Method: SPIRAL ASSAY): inactive; negative | mutagenic call (Test System: AMES SALMONELLA TYPHIMURIUM, Strain/Indicator: TA1535, Metabolic Activation: NONE, Method: STANDARD PLATE): inactive; negative | mutagenic call (Test System: AMES SALMONELLA TYPHIMURIUM, Strain/Indicator: TA1535, Metabolic Activation: RAT, LIVER, S-9, AROCLOR 1254, Method: SPIRAL ASSAY): inactive; negative | mutagenic call (Test System: AMES SALMONELLA TYPHIMURIUM, Strain/Indicator: TA1535, Metabolic Activation: RAT, LIVER, S-9, AROCLOR 1254, Method: STANDARD PLATE): inactive; negative | mutagenic call (Test System: AMES SALMONELLA TYPHIMURIUM, Strain/Indicator: TA1537, Metabolic Activation: NONE, Method: SPIRAL ASSAY): inactive; negative
